# Experimental data published in the NIST ThermoML archive (doi:10.1016/j.jct.2015.07.044).
# ± gives the expanded uncertainty stated by the source.
# Experiment: excess molar enthalpy (molar enthalpy of mixing); xn = mol fraction of the nth substance listed
# Settings: 298.15 K, 100 kPa, Liquid, Isoperibol calorimetry
compound,measurement,setting,value
CCCOCC(C)O (stereo not given) [1-propoxy-2-propanol] + O,excess molar enthalpy,x1 = 0.00199,-0.05 ± 0.01 kJ/mol
same,excess molar enthalpy,x1 = 0.00509,-0.11 ± 0.01 kJ/mol
same,excess molar enthalpy,x1 = 0.00988,-0.19 ± 0.01 kJ/mol
same,excess molar enthalpy,x1 = 0.01524,-0.29 ± 0.01 kJ/mol
same,excess molar enthalpy,x1 = 0.02082,-0.32 ± 0.01 kJ/mol
same,excess molar enthalpy,x1 = 0.02573,-0.37 ± 0.02 kJ/mol
same,excess molar enthalpy,x1 = 0.0299,-0.46 ± 0.02 kJ/mol
same,excess molar enthalpy,x1 = 0.03983,-0.5 ± 0.02 kJ/mol
same,excess molar enthalpy,x1 = 0.05248,-0.52 ± 0.02 kJ/mol
same,excess molar enthalpy,x1 = 0.09463,-0.59 ± 0.02 kJ/mol
same,excess molar enthalpy,x1 = 0.09856,-0.59 ± 0.02 kJ/mol
same,excess molar enthalpy,x1 = 0.1198,-0.61 ± 0.03 kJ/mol
same,excess molar enthalpy,x1 = 0.1284,-0.61 ± 0.03 kJ/mol
same,excess molar enthalpy,x1 = 0.1504,-0.62 ± 0.03 kJ/mol
same,excess molar enthalpy,x1 = 0.1711,-0.62 ± 0.03 kJ/mol
same,excess molar enthalpy,x1 = 0.2286,-0.62 ± 0.03 kJ/mol
same,excess molar enthalpy,x1 = 0.297,-0.59 ± 0.02 kJ/mol
same,excess molar enthalpy,x1 = 0.3791,-0.55 ± 0.02 kJ/mol
same,excess molar enthalpy,x1 = 0.4088,-0.54 ± 0.02 kJ/mol
same,excess molar enthalpy,x1 = 0.4372,-0.52 ± 0.02 kJ/mol
same,excess molar enthalpy,x1 = 0.494,-0.44 ± 0.02 kJ/mol
same,excess molar enthalpy,x1 = 0.5971,-0.35 ± 0.02 kJ/mol
same,excess molar enthalpy,x1 = 0.6988,-0.28 ± 0.01 kJ/mol
same,excess molar enthalpy,x1 = 0.7467,-0.25 ± 0.01 kJ/mol
same,excess molar enthalpy,x1 = 0.8056,-0.2 ± 0.01 kJ/mol
same,excess molar enthalpy,x1 = 0.8534,-0.16 ± 0.01 kJ/mol
same,excess molar enthalpy,x1 = 0.8713,-0.14 ± 0.01 kJ/mol
same,excess molar enthalpy,x1 = 0.9051,-0.11 ± 0.01 kJ/mol
same,excess molar enthalpy,x1 = 0.9205,-0.09 ± 0.01 kJ/mol
same,excess molar enthalpy,x1 = 0.9499,-0.06 ± 0.01 kJ/mol
